Assay results from paper PMC11990103, “Anticancer Activity and Safety Profile of Novel 1-(4-Fluorophenoxyacetyl)-4-substituted Thio/Semicarbazide Derivatives” (Molecules, 2025).

What was measured:
Format in all cases: cell-based, human
BJ fibroblasts = experiment: MTT cytotoxicity assay, normal cells; settings: 48 h treatment, read-out: IC50 BJ (fibroblast)
Protocol: These cancer cell lines comprised prostate cancer (PC-3, DU-145, LNCaP), melanoma (SK-MEL28, A375, G-361), breast cancer (MCF-7, MDA-MB-231), and lung cancer (NCI-H1563). The MTT assay was carried out across a wide range of concentrations for 48 h.
The research was conducted on one primary cell line: BJ (fibroblast) and four types of cancerous ones: three prostate cancer cell lines (PC-3, DU-145, LNCaP); 3 Melanoma cell lines (MEL-28, A375, G-361); 2 breast cancer cell lines (MCF-7, MDA-MB-23) and one lung cancer cell line (NCI-H1563). All cell lines were obtained from the American Type Culture Collection (ATCC, Manassas, VA, USA) and were grown in media (Corning, New York, NY, USA) according to ATCC guidelines. The culture media was enriched with 10% heat-inactivated fetal bovine serum (Life Technologies, Carlsbad, CA, USA) and antibiotics: penicillin (100 units) and streptomycin (100 μg/mL) from Sigma-Aldrich (St. Louis, MO, USA). The cells were incubated at 37 °C with 5% CO2 in air.
The cytotoxic analysis of thiosemicarbazides (TSC) (AB1–AB6) and semicarbazides (SC) (AB7–AB12) was conducted in various concentrations. […] The cells were treated with compounds or DMSO as a vehicle in control cultures for 48h. IC50 values were determined using the AAT Bioquest IC50 calculator (AAT Bioquest, Inc., Pleasanton, CA, USA, Quest Graph™ EC50 Calculator. https://www.aatbio.com/tools/ec50-calculator) (accessed on 7 October 2024).
The cytotoxic activity of the thiosemicarbazides and semicarbazides was measured using the MTT colorimetric assay (MTT Cell Proliferation Assay Kit—Invitrogen, Waltham, MA, USA). The cells were seeded in the 96-well plates at a density of 1.5 × 10^5 cells/mL. After reaching 70–80% of confluence, the tested compounds in a wide range of concentrations were added. Plates were incubated for 48 h at 37 °C in 5% CO2 air. Then, […] tetrazolium salt (3-(4,5-dimethylthiazol-2-yl)-2,5-diphenyltetrazolium bromide)—MTT reagent (0.5 mg/mL) dissolved in PBS was added to each well for 4 h. The MTT solution was then removed from above the water-insoluble purple formazan crystals, which were then dissolved in DMSO (dimethyl sulfoxide, […]; POCH, Gliwice, Poland). The absorbance value of obtained solutions was measured using a PowerWave ™ microplate spectrophotometer (Bio-Tek Instruments, Winooski, VT, USA) at a wavelength of 570 nm. Each cytotoxicity assay was repeated three times in triplicates.

G-361 melanoma cells = experiment: Cell cycle analysis by image cytometry (NucleoCounter NC-3000); settings: G-361, 48 h, AB2 at concentration corresponding to IC50
Protocol: To further evaluate the anticancer activity of thiosemicarbazide derivative AB2 in G-361 and LNCaP cell lines, cell cycle analysis by image cytometry and detection of apoptosis using annexin V and propidium iodide was performed. Analyses of the action of AB2 on the distribution of cells in different phases of the cell cycle indicated a significant increase in the population of cells in the sub-G1 phase compared to the control cultures, in both tested prostate and melanoma cells. This population increased from 7% and 5% in control cells to 26% and 27% after exposure to AB2 in LNCaP and G-361 cells, respectively (Figure 8A). The increase in the cell population in the sub-G1 phase indicates the presence of apoptosis or necrosis in the investigated cells and not a significant inhibition of cell proliferation, i.e., a cytostatic effect.
Cell cycle analysis was assessed with the NucleoCounter NC-3000 (ChemoMetec, Allerod, Denmark) following the 2-Step Cell Cycle Assay protocol recommended by the manufacturer. The research was performed after 48 h incubation of prostate cancer cells (LNCaP) and melanoma cells (G-361) with AB2 compound in a concentration corresponding to IC50 value. Analysis was performed in line with the previously described methodology.

G-361 melanoma cell line = experiment: qRT-PCR relative gene expression; settings: G-361, 24 h, concentration corresponding to IC50
Protocol: (§1) An analysis was conducted to examine the impact of the thiosemicarbazide AB2 on LNCaP prostate cancer cells and G-361 melanoma cells, focusing on the expression of genes associated with oxidative stress, cell cycle regulation, DNA repair, and apoptosis. Superoxide dismutase (SOD2), catalase (CAT), and glutathione peroxidase 1 (GPX1) are critical antioxidant enzymes that protect cells from oxidative stress by neutralizing reactive oxygen species (ROS) and mitigating potential cellular damage. […] This indicates heightened activation of cell cycle arrest mechanisms, given that p21 acts as an important inhibitor of cyclin-dependent kinases essential for cell cycle progression. […] The contrasting alterations in CDKN1A and CYCD indicate a transition toward cell cycle arrest in response to AB2 (Figure 9B). The next assessed panel of genes includes those involved in DNA damage sensing and repair, specifically ATM and ATR. ATM and ATR are fundamental components of the DNA damage response, responsible for the detection and repair of double-strand and single-strand DNA breaks, respectively.
(§2) The last assessed panel of genes includes genes involved in the process of apoptosis. BAX is a protein that enhances apoptosis, a natural to eliminate damaged or cancer cells. On the other hand, BCL-2 prevents apoptosis, helping cancer cells survive and resist therapy. […] The decrease in BCL-2 expression, along with stable BAX levels, led to a higher BAX/BCL-2 ratio in comparison to the control.
(§3) The relative gene expression was quantitatively assessed using real-time PCR. […] Next, for cell lysis the 1 mL of TRIzol™ reagent (Invitrogen, Carlsbad, CA, USA) was added. RNA was isolated according to the Chomczynski and Sacchi method. The RNA was reverse transcribed using NG dART RT-PCR reagents (EURx, Gdańsk, Poland) according to the manufacturer’s instructions. Following the manufacturer’s recommendation, the qPCR reaction was conducted in triplicate in a 7500 fast real-time PCR machine (ThermoFisher, Waltham, MA, USA) using Fast SG/ROX qPCR Master Mix (2×) (EURx, Gdansk, Poland). 18SRNA and BACT were used as reference genes. Gene expression was evaluated using qRT-PCR and ΔΔCt. Statistical analysis was conducted using RQ values (RQ = […]).

[1] = system: LNCaP prostate cancer cell line; experiment: qRT-PCR relative gene expression; settings: 24 h, concentration corresponding to IC50
Protocol: as §1, §2, §3

## O=C(COc1ccc(F)cc1)NNC(=S)Nc1ccccc1Cl [AB2]
BJ fibroblasts
  IC50: 453 µM
G-361 melanoma cells
  cells in sub-G1 phase (M1): 27%
G-361 melanoma cell line
  ATM gene expression: downregulated
  ATR gene expression: downregulated
  BAX gene expression: did not differ from the control cultures
  BAX/BCL-2 ratio in comparison to the control: higher
  BCL-2 gene expression: significantly downregulated
  CAT gene expression, increase: approximately 8 fold
  CDKN1A (p21) gene expression: significantly upregulated
  CYCD (cyclin D) gene expression: notably downregulated
  GPX1 gene expression: moderate but significant rise
  SOD2 gene expression, rise compared to control: > 100 fold
  TP53 gene expression: significant downregulation
[1]
  ATM gene expression: downregulated
  ATR gene expression: downregulated
  BAX gene expression: did not differ from the control cultures
  BAX/BCL-2 ratio in comparison to the control: higher
  BCL-2 gene expression: significantly downregulated
  CAT gene expression, increase: ~6 fold
  CDKN1A (p21) gene expression: significantly upregulated
  CYCD (cyclin D) gene expression: notably downregulated
  GPX1 gene expression: moderate but significant rise
  SOD2 gene expression, increase compared to control: > 20 fold
  TP53 gene expression: significant downregulation
